What was measured:
[1] = molecular target: T1, plasmin from human plasma (Homo sapiens, UniProt P00747); assay: Plasmin inhibition assay; format: biochemical; settings: mean ± SD, n = 3; 30-min preincubation; read-out: IC50 against plasmin
T1 construct: purchased Sigma P1867; host or cells: human plasma
Experimental: The plasmin inhibition assay was carried out by incubating 5 µL of […] plasmin from human plasma (P1867, Sigma, St. Louis, MO, USA) with 1 µL of different concentrations of inhibitors (2 and 3; half log dilutions prepared in DMSO) or the solvent control in the presence of 89 µL assay buffer (0.05 M Tris-HCl, pH 8.9). After a 30-min incubation time, 5 µL of 1.7 mM substrate solution (N-p-Tosyl-D-Gly-Pro-Lys-4-nitroanilide acetate salt; prepared in assay buffer) were added to each well. The reaction was monitored by measuring the absorbance at 405 nm every 30 s for 30 min using the SpectraMax M5 plate reader (Molecular Devices).

[2] = molecular target: T2, recombinant human matriptase (Homo sapiens, UniProt Q9Y5Y6); assay: In vitro cleavage of desmoglein-2 by matriptase (SDS-PAGE, silver stain, densitometry); format: biochemical; settings: 3 h; for Inhibition of in vitro cleavage of Dsg-2 by matriptase: enzyme to substrate ratio 1:5, pH 9.0, 37 °C, 10‒0.01 µM inhibitor, qualitative
T2 construct: purchased R&D Systems 3946-SE-010
T2 sequence (Q9Y5Y6 615-855 limits assumed): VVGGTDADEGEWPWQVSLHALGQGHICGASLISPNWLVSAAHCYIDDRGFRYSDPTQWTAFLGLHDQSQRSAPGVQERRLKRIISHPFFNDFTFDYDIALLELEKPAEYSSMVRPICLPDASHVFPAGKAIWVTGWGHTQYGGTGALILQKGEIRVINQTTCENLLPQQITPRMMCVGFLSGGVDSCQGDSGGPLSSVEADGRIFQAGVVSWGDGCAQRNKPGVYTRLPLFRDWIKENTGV
Experimental: Figure 4 The effect of kempopeptin C (3) on the in vitro cleavage of CDCP1 and desmoglein-2 (Dsg-2) by matriptase. (A,B) Incubation of recombinant human CDCP1 with recombinant human matriptase (enzyme to substrate ratio 1:5) in 50 mM Tris, 50 mM NaCl, 0.01% Tween 20 (pH 9.0) at 37 °C for 30 min and 2 h in the presence and absence of different concentrations (10‒0.01 µM) of kempopeptin C (3). (C) Incubation of recombinant human Dsg-2 with recombinant human matriptase (enzyme to substrate ratio 1:5) in 50 mM Tris, 50 mM NaCl, 0.01% tween 20 (pH 9.0) at 37 °C for 3 h in the presence and absence of different concentrations (10‒0.01 µM) of kempopeptin C (3). Fragments were separated on SDS-PAGE under reducing conditions and silver stained. (D) Densitometric analysis of Dsg-2 bands in the SDS-PAGE in […].
Among the earliest events in cancer metastasis is the loss of intracellular adhesion. Desmosomes are adhesive molecules localized at the cell membrane acting as an anchor for intermediate filaments in addition to being adhesive intracellular junctions. Desmogleins (Dsg 1‒4) and desmocollins (Dsc 1‒3), comprising the core of the desmosomal adhesive complex, are glycoproteins and members of the cadherin superfamily of proteins. Desmogleins have been reported to be aberrantly expressed in several cancers and substrates of several proteases. Dsg-2 is known to be a substrate of kallikrein 7 (KLK7) and harbors a cleavage site for matriptase. We therefore investigated the cleavage of Dsg-2 by matriptase in vitro and the ability of kempopeptin C (3) to inhibit or reduce this cleavage. Matriptase and Dsg-2 were incubated for 3 h at 37 °C in assay buffer (final molar ratio 1:5) in the presence of different concentrations of kempopeptin C (3) or solvent control (Figure 4C). The resulting protein fragments were separated by SDS-PAGE and subjected to silver staining. […] The incomplete cleavage of Dsg-2 by matriptase might be due to the relative affinity of kempopeptin C (3) to matriptase, such that it can block the cleavage of some low affinity bands, but have no effects on others. […]

[3] = Cell viability assay (MTT); format: cell-based; settings: human, MDA-MB-231 breast cancer cells; MDA-MB-231, 48 h, all concentrations tested (32 µM to 320 pM)
Experimental: MDA-MB-231 cells were seeded in 96-well plates (10,000 cells/well). After 24 h of incubation, the cells were treated with different concentrations of kempopeptins B or C (2 or 3) or the solvent control (DMSO). Following 48 h of incubation, cell viability was measured using 3-(4,5-dimethylthiazol-2-yl)-2,5-diphenyltetrazolium bromide according to the manufacturer's instructions (Promega, Madison, WI, USA).
Effect of kempopeptins on the viability of MDA-MB-231 cells
Kempopeptin C Kempopeptin B
Figure S1. Effect of kempopeptins B and C (2) and (3) on the viability of MDA -MB-231 breast cancer cells.

T1 sequence (P00747 581-810 limits assumed): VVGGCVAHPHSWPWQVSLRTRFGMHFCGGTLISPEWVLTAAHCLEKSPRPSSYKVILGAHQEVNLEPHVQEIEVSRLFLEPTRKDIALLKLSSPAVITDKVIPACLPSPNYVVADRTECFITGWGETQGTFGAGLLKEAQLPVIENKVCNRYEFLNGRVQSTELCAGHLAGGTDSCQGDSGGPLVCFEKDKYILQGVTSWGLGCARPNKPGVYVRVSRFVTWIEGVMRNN
T1 sequence (P00747 98-580 partner limits assumed): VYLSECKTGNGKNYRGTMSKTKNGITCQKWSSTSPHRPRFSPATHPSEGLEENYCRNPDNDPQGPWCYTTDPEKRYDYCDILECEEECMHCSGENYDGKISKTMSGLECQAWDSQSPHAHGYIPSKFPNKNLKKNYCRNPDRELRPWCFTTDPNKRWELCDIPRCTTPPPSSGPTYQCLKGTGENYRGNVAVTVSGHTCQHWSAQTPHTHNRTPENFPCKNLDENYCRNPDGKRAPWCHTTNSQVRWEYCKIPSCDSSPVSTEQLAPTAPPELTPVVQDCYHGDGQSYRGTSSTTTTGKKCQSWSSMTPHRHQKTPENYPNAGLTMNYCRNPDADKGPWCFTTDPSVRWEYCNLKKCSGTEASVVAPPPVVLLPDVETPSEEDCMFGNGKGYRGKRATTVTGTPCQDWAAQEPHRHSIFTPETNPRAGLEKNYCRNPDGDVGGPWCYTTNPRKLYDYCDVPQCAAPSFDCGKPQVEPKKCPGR

For `CCCC(=O)NC(C(=O)NC1C(=O)NC(CCCCN)C(=O)NC2CCC(O)N(C2=O)C(C(C)CC)C(=O)N(C)C(Cc2ccc(OC)c(Cl)c2)C(=O)NC(C(C)C)C(=O)OC1C)C(C)C` (centres unmarked) [Kempopeptin C, kempopeptin C], the IC50 [1] was 360 ± 90 nM, the “Densitometry of full-length Dsg-2 (Band 1)” value ([2]; 37 °C, compared to lower concentrations of the inhibitor) was “higher intensity of the full-length Dsg-2 (Band 1) in the presence of 10, 1 and 0.1 µM” and the “Inhibition of in vitro cleavage of Dsg-2 by matriptase” value [2] was “inhibit the cleavage”. For the same compound, the “Inhibition of in vitro cleavage of Dsg-2 by matriptase” value ([2]; listed as Kempopeptin C (3)) was “slight dose-dependent reduction in the cleavage of Dsg-2” and the viability at 48 h [3] was > 90%.

Source: article PMC5618429, “Kempopeptin C, a Novel Marine-Derived Serine Protease Inhibitor Targeting Invasive Breast Cancer” (Marine Drugs, 2017)
